From patent publication US20090093539A1, “ANTI-ANGIOGENIC COMPOSITIONS AND METHODS OF USE THEREOF” (priority 2007, published 2009)

Assays:
Type in all cases: cell-based
[1] = tested on: SW480 (Colon Cancer) cancer cell line; assay: inhibition of cancer cell lines in vitro: SW480; conditions: about 2 micrograms per milliliter
Text: (§1) 15,16-dihyrotanshinone I is also a potent inhibitor of several cancer cell lines in vitro, including the SW480 (Colon Cancer) and the HTB 72 (Melanoma) cancer cell lines. At a very low concentration of about 2 micrograms per milliliter, 100% inhibitions are achieved.

[2] = tested on: HTB 72 (Melanoma) cancer cell line; assay: inhibition of cancer cell lines in vitro: HTB 72; conditions: about 2 micrograms per milliliter
Text: as §1

[3] = tested on: Bovine Cardio-Pulmonary Artery Endothelial (CPAE) cells; assay: endothelial cell proliferation assay (cellular acid phosphatase readout)
Description: An endothelial cell proliferation assay was carried out according to the procedures of Connally, et al. (1986) (Anal. Biochem. 152:136-140) with modifications (Liang and Wong (2000) ANGIOGENESIS: FROM THE MOLECULAR TO INTEGRATIVE PHARMACOLOGY, edited by Maradoudakis, Kluwer Academic/Plenum Publishers, New York, pp 209-223). Bovine Cardio-Pulmonary Artery Endothelial (CPAE) cells acquired from American Type Culture Collection (ATCC; ATCC No. CCL-209) were grown to nearly 95% confluence in MEM-10E. The cells were released from the tissue culture flask with a 0.25% trypsin solution and plated in 24-well tissue culture plates in the same culture medium at a density of 10,000 cells/well. After the plates were incubated for 8 hours at 37° C. in a 5% carbon dioxide incubator, assay samples and control samples were added. Each sample was loaded in two different wells at 100 μl/well to ensure reproducibility. After incubation with the sample for 60 hours, the medium was aspirated, and the number of cells was measured on the basis of the calorimetric measurement of cellular acid phosphatase.

Cc1cccc2c3c(ccc12)C1=C(C(=O)C3=O)C(C)CO1 (stereo not shown) [15,16-dihydrotanshinone I, 15,16-dihydrotanshinone] was tested, and the “inhibition of SW480 (Colon Cancer) cell line” value [1] was 100%, the “inhibition of HTB 72 (Melanoma) cell line” value [2] was 100% and the inhibition at 50 µg/mL ([3]; Bos taurus, Endothelial cell, 50 μg/ml, 60 hours incubation, read-out: endothelial cell growth inhibition) was 84.4%. For the same molecule, the “inhibition of endothelial cell proliferation, concentration-dependent study (FIG. 1)” value ([3]; another 15,16-dihydrotanshinone I sample, result in words) was “inhibits endothelial cell proliferation in a concentration-dependent manner”.
